Data taken from patent US20080280952A1 (priority 2004, published 2008).

Target: T1, human cannabinoid CB2 receptor (Homo sapiens, UniProt P34972)
T1 construct: expressed in transfected cells; host or cells: Saccharomyces cerevisiae strain MMY23 (cassette integrated at the ura3 locus, GPD promoter)
Assay: Cannabinoid CB2 receptor agonist activity, yeast reporter assay
Type: cell-based
Settings: for Emax: read-out: efficacy (Emax) at the cloned human cannabinoid CB2 receptor
Protocol: The cannabinoid CB2 receptor agonist activity of the compounds of formula (I) was determined in accordance with the following experimental method.
Yeast (Saccharomyces cerevisiae) cells expressing the human cannabinoid CB2 receptor were generated by integration of an expression cassette into the ura3 chromosomal locus of yeast strain MMY23. This cassette consisted of DNA sequence encoding the human CB2 receptor flanked by the yeast GPD promoter to the 5′ end of CB2 and a yeast transcriptional terminator sequence to the 3′ end of CB2. MMY23 expresses a yeast/mammalian chimeric G-protein alpha subunit in which the C-terminal 5 amino acids of Gpa1 are replaced with the C-terminal 5 amino acids of human Gαi3 (as described in Brown et al. (2000), Yeast 16:11-22).
Agonists were prepared as 10 mM stocks in DMSO. […] Agonist solutions in DMSO (1% final assay volume) were transferred into black, clear bottom, microtitre plates from NUNC (96- or 384-well). Cells were suspended at a density of 0.2 OD600/ml in SC media lacking histidine, uracil, tryptophan, adenine and leucine and supplemented with 10 mM 3-aminotriazole, 0.1M sodium phosphate pH 7.0, and […] fluorescein di-β-D-glucopyranoside (FDGlu). […] Fluorescence was plotted against compound concentration and iteratively curve fitted using a four parameter fit to generate a concentration effect value. Efficacy (Emax) was calculated from the equation
Equieffective molar ratio (EMR) values were calculated from the equation

T1 sequence (P34972 whole entry): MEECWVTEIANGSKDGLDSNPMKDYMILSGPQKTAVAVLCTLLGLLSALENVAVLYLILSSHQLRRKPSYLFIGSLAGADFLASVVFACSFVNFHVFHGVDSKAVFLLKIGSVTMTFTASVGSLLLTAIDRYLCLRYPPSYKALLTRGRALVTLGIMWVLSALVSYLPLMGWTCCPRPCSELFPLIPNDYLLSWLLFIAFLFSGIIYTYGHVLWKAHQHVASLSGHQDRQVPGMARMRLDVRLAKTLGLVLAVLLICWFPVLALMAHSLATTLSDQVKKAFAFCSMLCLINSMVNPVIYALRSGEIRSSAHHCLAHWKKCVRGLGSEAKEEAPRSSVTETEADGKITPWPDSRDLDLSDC

O=C(NCC1CCOCC1)c1cnc(Nc2ccc(F)c(F)c2)cc1C1CC1 [Example 113, 4-Cyclopropyl-6-(3,4-difluoro-phenylamino)-N-(tetrahydro-pyran-4-ylmethyl)-nicotinamide]
EC50: 300 to 1000 nM
Emax: > 50%

Cc1ccc(C(F)(F)F)cc1Nc1cc(C2CC2)c(C(=O)NCC2CCOCC2)cn1 [Example 114, 4-Cyclopropyl-6-(2-methyl-5-trifluoromethyl-phenylamino)-N-(tetrahydro-pyran-4-ylmethyl)-nicotinamide]
EC50: 300 to 1000 nM
Emax: > 50%

COc1cccc(Nc2cc(C3CC3)c(C(=O)NCC3CCC3)cn2)c1 [Example 115, N-Cyclobutylmethyl-4-cyclopropyl-6-(3-methoxy-phenylamino)-nicotinamide]
EC50: 300 to 1000 nM
Emax: > 50%

O=C(NCC1CCC1)c1cnc(Nc2ccc(F)cc2Cl)cc1C1CC1 [Example 116]
EC50: 300 to 1000 nM
Emax: > 50%

Cc1cccc(Nc2cc(C3CC3)c(C(=O)NCC3CCCC3)cn2)c1 [Example 117, N-Cyclopentylmethyl-4-cyclopropyl-6-(3-methyl-phenylamino)-nicotinamide]
EC50: 300 to 1000 nM
Emax: > 50%

COc1cccc(Nc2cc(C3CC3)c(C(=O)NCC3CCCC3)cn2)c1 [Example 118, N-Cyclopentylmethyl-4-cyclopropyl-6-(3-methoxy-phenylamino)-nicotinamide]
EC50: 300 to 1000 nM
Emax: > 50%

O=C(NCC1CCCC1)c1cnc(Nc2cccc(Cl)c2Cl)cc1C1CC1 [Example 119, N-Cyclopentylmethyl-4-cyclopropyl-6-(2,3-dichloro-phenylamino)-nicotinamide]
EC50: 300 to 1000 nM
Emax: > 50%

O=C(NCC1CCCC1)c1cnc(Nc2ccc(C(F)(F)F)c(Cl)c2)cc1C1CC1 [Example 120, 6-(3-Chloro-4-trifluoromethyl-phenylamino)-N-cyclopentylmethyl-4-cyclopropyl-nicotinamide]
EC50: 300 to 1000 nM
Emax: > 50%

N#Cc1ccc(Nc2cc(C3CC3)c(C(=O)NCC3CCOCC3)cn2)c(F)c1 [Example 121, 6-(4-Cyano-2-fluoro-phenylamino)-4-cyclopropyl-N-(tetrahydro-pyran-4-ylmethyl)-nicotinamide]
EC50: 300 to 1000 nM
Emax: > 50%

O=C(NCC1CCCC1)c1cnc(Nc2cccc(F)c2F)cc1C1CC1 [Example 122, N-Cyclopentylmethyl-4-cyclopropyl-6-(2,3-difluoro-phenylamino)-nicotinamide]
EC50: 300 to 1000 nM
Emax: > 50%

O=C(NCC1CCC1)c1cnc(Nc2ccc(F)c(C(F)(F)F)c2)cc1C1CC1 [Example 123, N-Cyclobutylmethyl-4-cyclopropyl-6-(4-fluoro-3-trifluoromethyl-phenylamino)-nicotinamide]
EC50: 300 to 1000 nM
Emax: > 50%

O=C(NCC1CCOCC1)c1ccc(Nc2cccc(Cl)c2)nc1C1CC1 [Example 124, 6-(3-Chloro-phenylamino)-2-cyclopropyl-N-(tetrahydro-pyran-4-ylmethyl)-nicotinamide]
EC50: 300 to 1000 nM
Emax: > 50%

O=C(NCC1CCOCC1)c1ccc(Nc2cccc(C(F)(F)F)c2)nc1C1CC1 [Example 125, 2-Cyclopropyl-N-(tetrahydro-pyran-4-ylmethyl)-6-(3-trifluoromethyl-phenylamino)-nicotinamide]
EC50: 300 to 1000 nM
Emax: > 50%

O=C(NCC1CCOCC1)c1ccc(Nc2cccc(Br)c2)nc1C1CC1 [Example 126, 6-(3-Bromo-phenylamino)-2-cyclopropyl-N-(tetrahydro-pyran-4-ylmethyl)-nicotinamide]
EC50: 300 to 1000 nM
Emax: > 50%

O=C(NCC1CCOCC1)c1ccc(Nc2cccc(OC(F)(F)F)c2)nc1C1CC1 [Example 127, 2-Cyclopropyl-N-(tetrahydro-pyran-4-ylmethyl)-6-(3-trifluoromethoxy-phenylamino)-nicotinamide]
EC50: 300 to 1000 nM
Emax: > 50%
